The values below come from patent US5843917A, “5-Fluorouracil derivatives” (priority 1993, dated 1998).

Read-outs that look alike come from different tables or passages of the source.

The subject of one data set is DPD. The experiment in a line: Protection of 5-FU from DPD catabolism by release of 5-EU from nucleosides (urinary recovery of 5-FU in rats). The data set is classed as in vivo. The settings on record: rat; oral predose 0.03, 0.3 and 3.0 mg/kg, then 25 mg/kg 5-FU.
For data set [1] the following is noted: literature reports; combination with 5-fluorouracil or its prodrug; cited from earlier work.
The test system of a further data set is uracil reductase. The settings on record: cited from earlier work.
A short description of data set [2]: Urinary recovery of 5-FU in rats dosed with the succinate linked nucleoside. It is filed as in vivo. The following applies: rat; 25 mg/kg 5-FU equivalent. How it is done: (§1) 5-FU and 5-EU bases and nucleosides were dissolved in deionized HPLC grade water immediately prior to dosing. All animals were dosed once, p.o. via gastric gavage at the indicated mg/kg dose for each compound (See Results Section and Figures). 5-EU and 5-EU nucleosides were dosed to animals 0.5 hr prior to dosing with 5-FU and 5-FU nucleosides. Dosing was routinely performed between 11 am and 1 pm. An approximate volume of 300 μL was used for each dose. Rats were placed in individual Nalge metabolism cages, which separate urine and faeces, and continued on a 12 hr light/dark schedule post-dosing. Mice were treated post-dose in a similar manner with the exception that 5 mice were housed per cage.
Urine from each cage was collected into 0-24 hr and 24-48 hr post-dose fractions. […]
(§2) 5 ml of a thoroughly mixed urine sample was filtered through a Millex GS 0.22 μm filter (Millipore, Bedford, Mass.) and frozen prior to HPLC analysis. […] 100 μL of this solution was quantitated for 5-FU by HPLC on a Waters Associates System (Waters Associates, Milford, Mass.) equipped with a Waters 600E system controller, a Waters 600 solvent delivery system, a Waters model 712 WISP automated sample injector, a Waters 484 tuneable absorbance detector, and a Waters 991 photodiode array detector. […]
Rats were dosed 25 mg/kg 5-FU equivalent with the succinate linked nucleosides. […] 5-FU was not detected in the 24-48 hr urine.

The nature of data set [3]: Urinary recovery of 5-FU in mice dosed with 5-FU or the succinate linked nucleoside. The data set is classed as in vivo. The settings on record: mouse; for dose excreted: urine, po, 5 mg/kg. How it is done:
as §1
(§3) Urine from each cage was collected into 0-24 hr and 24-48 hr post-dose fractions. Cages were rinsed with deionized water prior to collection of each fraction. The combined volume of urine and rinse was brought to a standard volume with deionized water.
5-FU recovery in mouse urine was determined as above with three exceptions: a Phenomenex 5 μm Extrasil C-18 column (250mm×4.6 mm i.d.; Phenomenex, Torrance, Calif.) was used; an identical gradient with buffer A as aqueous 50 mM formic acid, pH 3.5, with 0.5% acetonitrile and buffer B as aqueous 50 mM formic acid, pH 3.5, with 60% acetonitrile was used; the standard curve was prepared by diluting known concentrations of 5-FU into undosed mouse urine and eluting with the latter described gradient and buffers, instead of isocratic conditions.
For these studies mice were dosed with either 5 mg/kg 5-FU or given an equivalent dose of 5-FU via the succinate linked nucleoside. The urinary recovery of 5-FU was measured in the presence and absence of 5-EU (Table 2). […] When mice were predosed with 5-EU followed by dosing with 5-FU, the urinary recovery of 5-FU was 50%. Mice dosed with the succinate linked nucleoside gave 25-30% urinary recovery of 5-FU available from the linked compound.

The subject of another data set is Colon 38. The experiment in a line: In vivo antitumor testing with s.c. murine Colon 38 carcinoma in C57BL/6 female mice. How it is done:
(§4) In vivo antitumor testing with murine Colon 38 was conducted in-house. C57BL/6 female mice were housed in sterile, polycarbonate, filter-capped Microisolator cages (Lab Products, Inc., Maywood, N.J.) containing sterile hardwood bedding. Mice were fed sterile rodent chow and filter-sterilised water ad libitum. All manipulations of these mice were conducted in laminar-flow biosafety hoods. Colon 38 carcinoma was obtained from the Development Therapeutics Program Tumour Repository. Mice were implanted s.c. with 70 mg tumour fragments using a number 13 trocar. There were 10 mice in the control group that received tumour implants without drug treatment. There were 5 mice in each group treated with the dose and compounds as described below. Treatment began on day 16 post tumour implant and compounds were dosed once/day for 9 days. 5-FU was dosed at 15, 20, 25, 30, and 40 mg/kg.. […] Tumour weights were calculated three times per week from measurements of tumour length and width. Antitumor activity was expressed as the days delay in tumour growth (T-C). T-C was calculated as the difference in the median of days for treated animals minus control animals for tumour mass to double twice post initial day of dosing (Day 16). Tumour-free survivors were not excluded from T-C calculations. Surviving mice were sacrificed after day 56.

Experiment in data set [4]: as above
The settings on record: mouse, in vivo, sc, mice with s.c. Colon 38. How it is done:
as §4

The nature of data set [5]: Urinary recovery of 5-FU in rats for 5-FU and various 5-FU containing nucleosides. It is filed as in vivo. The settings on record: rat, urine, po, p.o., read-out: % 5-FU Recovery 0-24 hr Urine (Average of Two Experiments). The protocol:
as §1, §3
as §2, with “detector. For quantitiation of 5-FU in rat urine, HPLC was performed on a 250 mm×4.6 mm YMC AQ-303 S-5 120A ODS analytical column (YMC, Morris Plains, N.J.) or on a Microsorb C18 analytical column with identical dimensions (Rainin Instrument Co., Woburn, Mass.).” for “detector.”
Plots of UV peak area vs 5-FU concentration were linear between 5 μM and 100 μM. The total urinary recovery of 5-FU was determined by multiplication of the nmoles of 5-FU determined from the standard curve by the dilution factor of 3 (above) and by the standard volume of urine collected. […]

Procedure for DPD: 5-FU and 5-EU bases and nucleosides were dissolved in deionized HPLC grade water immediately prior to dosing. […] 5-EU and 5-EU nucleosides were dosed to animals 0.5 hr prior to dosing with 5-FU and 5-FU nucleosides. Dosing was routinely performed between 11 am and 1 pm. An approximate volume of 300 μL was used for each dose. Rats were placed in individual Nalge metabolism cages, which separate urine and faeces, and continued on a 12 hr light/dark schedule post-dosing.
5 ml of a thoroughly mixed urine sample was filtered through a Millex GS 0.22 μm filter (Millipore, Bedford, Mass.) and frozen prior to HPLC analysis. 1 ml of the thawed primary filtered solution was diluted with 2 ml of water and particulates were removed from this diluted stock solution using a Centrifree micro partition system (Amicon Division, W. R. Grace and Co., Beverly Mass.). […]

For `C#Cc1cn([C@H]2C[C@H](O)[C@@H](COP(=O)(O)O)O2)c(=O)[nH]c1=O` [2'-deoxy-5'-monophosphate of 5-EU, 1-(2-Deoxy-β-D-Erythro-Pentofuranosyl)-5-Ethynyluracil 5'-Monophosphate], the “dose response for urinary recovery of 5-FU” value in the data set on DPD is listed as “A direct dose response for urinary recovery of 5-FU was observed”.
On to `O=c1[nH]c(=O)n([C@H]2C[C@H](O)[C@@H](CO)O2)cc1C=CBr` [5-(2-bromovinyl)-2'-deoxyuridine], for which, in data set [1], the “effect on 5-fluorouracil metabolism and antitumour activity” value is “enhances the antitumour activity of 5-fluorouracil and 5-deoxy-5-fluorouridine”.
For `O=c1[nH]cc(C=CBr)c(=O)[nH]1` [5-(2-bromovinyl)-uracil (BVU), 5-(2-bromovinyl)-uracil], the “inhibition of dihydrothymidine dehydrogenase” value with uracil reductase (Cancer Research 46, 1094, 1986) is given as “is an inhibitor of dihydrothymidine dehydrogenase”. Besides, the “effect on 5-fluorouracil metabolism and antitumour activity” value in data set [1] is “retards the metabolism of 5-fluorouracil and enhances its antitumour activity”.
Turning to `C#Cc1cn([C@H]2C[C@H](OC(=O)CCC(=O)O[C@H]3C[C@H](n4cc(F)c(=O)[nH]c4=O)O[C@@H]3CO)[C@@H](CO)O2)c(=O)[nH]c1=O` [Example 1, 5-Ethynyl-5"-fluoro-3',3"-O-succinylbis-(1-(2-deoxy-β-D-erythro-pentofuranosyl)uracil)], the “5-FU in the 24-48 hr urine” value in data set [2] was “not detected”. For the same compound, in data set [3] (predosed with 5-EU then succinate linked nucleoside), the “improvement of 5-FU urinary recovery by 5-EU predose” value is “no improvement”. Also, the “Tumour-free Survivors (Day 56)” value with Colon 38 (1 mg/kg 5-FU equivalent) is given as 0/5; with Colon 38 (2 mg/kg 5-FU equivalent) it was 2/5. Besides, the “Antitumour Activity T-C” value in the data set with Colon 38 (1 mg/kg 5-FU equivalent, once/day for 9 days) is 12.9 days; in the data set with Colon 38 (2 mg/kg 5-FU equivalent, once/day for 9 days), greater than 27.9 days. Also, the MTD was greater than 4 mg/kg in data set [4] (5-FU and 5-EU equivalents, read-out: toxic at doses, as 5-FU and 5-EU equivalents); greater than 17.9 mg/kg in data set [4] (dose of the linked compound, once/day for 9 days, read-out: toxic at doses).
As to `C#Cc1c[nH]c(=O)[nH]c1=O` [Example 5-EU, 5-ethynyluracil], the “potency as an inactivator of uracil reductase relative to BVU” value with uracil reductase (relative to BVU) is listed as 100 fold.
Consider `O=c1[nH]cc(F)c(=O)[nH]1` [Example 5-FU, 5-fluorouracil], for which the dose excreted in data set [3] (5 mg/kg 5-FU, predosed with 5-EU, read-out: urinary recovery of 5-FU) is 50%; in data set [3] (5 mg/kg equivalent 5-FU, 5-EU predose 2 mg/kg, Table 2, read-out: Recovery 5-FU (%)) it was 51%; in data set [3] (5 mg/kg equivalent 5-FU, no predose, Table 2, read-out: Recovery 5-FU (%)) it was 0%. For the same compound, the “5-FU detection in the urine” value in data set [3] (5 mg/kg 5-FU, without 5-EU predose) is on record as “could not be detected”. For the same compound, the dose excreted at 24 h in data set [5] (5 mg/kg, 5-FU 5 mg/kg, 5-EU predose 2 mg/kg) was 52%; in data set [5] (5 mg/kg, 5-FU 5 mg/kg, no predose), less than 5%; in data set [5] (25 mg/kg, 5-FU 25 mg/kg, 5-EU predose 0.03 mg/kg), 43 to 63%. In addition, the “Tumour-free Survivors (Day 56)” value with Colon 38 (25 mg/kg 5-FU equivalent), in the data set on Colon 38 (30 mg/kg 5-FU equivalent) and in the data set on Colon 38 (40 mg/kg 5-FU equivalent) was 0/5 in each case. Moreover, the “Antitumour Activity T-C” value came out at 14.9 days with Colon 38 (25 mg/kg 5-FU equivalent, once/day for 9 days) and 23.6 days in the data set with Colon 38 (30 mg/kg 5-FU equivalent, once/day for 9 days). The “Antitumour Activity T-C (column entry Toxic)” value with Colon 38 (40 mg/kg 5-FU equivalent, once/day for 9 days) is “Toxic”.
With `C#Cc1cn([C@@H]2O[C@H](CO)[C@@H](O)[C@@H]2O)c(=O)[nH]c1=O` [arabinoside of 5-EU], in the data set with DPD, the “dose response for urinary recovery of 5-FU” value was “A direct dose response for urinary recovery of 5-FU was observed”.
